Reference: article PMC10285409, “Identification and validation of G protein-coupled receptors modulating flow-dependent signaling pathways in vascular endothelial cells” (Frontiers in Molecular Biosciences, 2023)

Target: T1, LGR4 (Homo sapiens, UniProt Q9BXB1)
T1 sequence (Q9BXB1 25-951): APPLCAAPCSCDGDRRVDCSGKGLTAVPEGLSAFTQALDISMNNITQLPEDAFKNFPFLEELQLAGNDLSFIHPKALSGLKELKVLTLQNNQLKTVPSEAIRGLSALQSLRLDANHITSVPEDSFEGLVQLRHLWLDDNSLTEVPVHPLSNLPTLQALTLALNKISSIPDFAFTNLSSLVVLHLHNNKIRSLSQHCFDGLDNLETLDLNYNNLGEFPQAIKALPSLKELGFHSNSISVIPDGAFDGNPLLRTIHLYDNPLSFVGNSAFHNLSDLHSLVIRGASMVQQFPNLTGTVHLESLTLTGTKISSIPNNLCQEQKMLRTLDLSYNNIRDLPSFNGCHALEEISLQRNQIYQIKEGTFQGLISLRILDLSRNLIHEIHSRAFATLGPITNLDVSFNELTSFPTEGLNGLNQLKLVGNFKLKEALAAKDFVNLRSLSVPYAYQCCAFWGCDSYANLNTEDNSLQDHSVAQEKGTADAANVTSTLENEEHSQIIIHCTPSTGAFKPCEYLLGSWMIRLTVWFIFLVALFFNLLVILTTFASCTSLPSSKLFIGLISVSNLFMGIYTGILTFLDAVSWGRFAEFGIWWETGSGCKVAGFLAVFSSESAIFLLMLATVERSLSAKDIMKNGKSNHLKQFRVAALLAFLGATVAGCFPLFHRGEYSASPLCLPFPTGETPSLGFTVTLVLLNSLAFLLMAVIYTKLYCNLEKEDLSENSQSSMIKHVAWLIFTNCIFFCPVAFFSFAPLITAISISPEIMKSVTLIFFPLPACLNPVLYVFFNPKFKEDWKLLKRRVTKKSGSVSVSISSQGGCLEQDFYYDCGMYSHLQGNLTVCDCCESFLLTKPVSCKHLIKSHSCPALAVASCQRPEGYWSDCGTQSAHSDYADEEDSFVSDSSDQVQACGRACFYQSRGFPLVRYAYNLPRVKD
Assay: beta-arrestin recruitment enzyme complementation in CHO-K1 LGR4 cells; KLF2-luciferase activity lost on LGR4 knockdown
Type: cell-based

SMILES	EC50 [µM]
CCCCOC(=O)c1c(Cl)nc(CCCC)n1Cc1cccc2c1ccn2-c1ccccc1-c1nn[nH]n1 [Compound 2]	5
CCCCN(Cc1ccc(-c2ccccc2-c2nnn[nH]2)cc1)C(=O)NCc1ccc(Cl)cc1 [Compound 1]	27
